Assay [1] has as its target T1, peptide/HLA-A*0201 complex on T2A2 cells (Homo sapiens, UniProt P04439, D140Y/D185E/D98H/E176V/E277Q/G131W/G231S/I119V/I121R/I166T/I218V/L300P/L318F/N151K/N90K/P208A/P217A/Q86G/Q94H/R138H/R169H/T345S).
T1 construct: endogenous in cells; host or cells: T2A2 cells
The assay is described as follows: Peptide/HLA-A*0201 complex stability assay. As to conditions: time for loss of 50% of peptide/HLA-A*0201 complexes stabilized at 0 h, 50 μg/mL peptide, 18 h, brefeldin A 10 μg/mL 1 h, then 0, 2, 4, 6 h at 37°C, flow cytometry. In kind it is binding. Here is the method: The peptide/MHC complex stabilization assays were performed similarly. T2A2 cells were incubated with 50 μg/mL peptides and 3 μg/mL β2-M for 18 h. Then, 10 μg/mL brefeldin A (203729, Sigma, USA) were added in medium for another 1 h, subsequently washed by serum-free IMDM medium and incubated at 37°C for 0, 2, 4, and 6 h. Finally, cells were washed twice, stained with HLA-A2-PE-Cyanine 7 monoclonal antibody, and analyzed by flow cytometer (FACS Calibur, BD Bioscience, USA). DC50 was defined as an estimate of the time required for the loss of 50% of the peptide/HLA-A^∗0201 complexes stabilized at time 0 h.
On the technique in general: In flow cytometry, cells or beads pass a laser one at a time.

Assay [2] addresses T2, HLA-A*0201 on T2A2 cells (Homo sapiens, UniProt P04439, D140Y/D185E/D98H/E176V/E277Q/G131W/G231S/I119V/I121R/I166T/I218V/L300P/L318F/N151K/N90K/P208A/P217A/Q86G/Q94H/R138H/R169H/T345S).
T2 construct: T2A2 cells (1 × 10^6 cells/mL) resuspended in serum-free IMDM medium were seeded in 24-well plates; endogenous in cells; host or cells: T2A2 cells
Kind of assay: T2A2 cell binding affinity assay. As to conditions: 50 μg/mL peptide + 3 μg/mL β2-M; for FI (fluorescence index): FI = [MFI of the peptide − MFI of the background]/[MFI of the background], T2A2 cells, 18 h; for MFI: T2A2 cells 1 × 10^6 cells/mL, 37°C 18 h, HLA-A2 antibody BB7.2, flow cytometry, background MFI 131.

For assay [3], the system named is peptide-induced CTLs from HLA-A*02+PPD+ donors. The assay is described as follows: IFN-γ ELISPOT of peptide-induced CTLs in vitro. The format is cell-based, human. Particulars: CTLs induced with peptide-loaded DCs from HLA-A*02+PPD+ donors, day 21; stimulators peptide-loaded T2A2 cells, 18 h.
For assay [4], the system named is peptide-induced CD8+ T cells from HLA-A*02+ PPD+ / PPD− donors. The assay is described as follows: Intracellular cytokine IFN-γ staining (ICS) of peptide-induced CTLs in vitro. In kind it is cell-based, human. Particulars: for CD8+ IFN-γ+ T cells, PPD+ donors compared with PPD− donors: n = 3 donors each, Student's t-test; for CD8+ IFN-γ+ T cells, PPD+ donors compared with PBS-treated group: n = 3 donors.

Assay [5] has as its system CD8+ T cells of splenic lymphocytes. The assay is described as follows: ICS assay of restimulated splenic lymphocytes from immunized mice. The format is in vivo, HLA-A2.1/K^b transgenic mice. As to conditions: ICS on day 7 of restimulation, n = 5.
In assay [6] the test system is IFN-γ. The assay is described as follows: Serum IFN-γ ELISA after peptide immunization. In kind it is in vivo, HLA-A2.1/K^b transgenic mice. As to conditions: serum day 11, n = 5.
The test system of assay [7] is peptide-pulsed T2A2 cells. The assay is described as follows: LDH cytotoxicity assay of peptide-induced CTLs in vitro. Particulars: E : T ratio 50 : 1, CTLs from HLA-A*02+PPD+ donors, T2A2 cells pulsed with corresponding peptide, 4 h, n = 4. In kind it is cell-based, human.
Assay [8] relates to peptide-loaded T2A2 cells. Kind of assay: LDH lysis assay with CTLs from immunized mice. In kind it is in vivo, HLA-A2.1/K^b transgenic mice. As to conditions: peptide-loaded T2A2 target cells, n = 5.
Where [9] appears, read: CFA day -14 then peptide in IFA.

Consider “TLFKTIVGL [Rv2477c-p362, predicted HLA-A2-restricted 9-mer peptide … from MTB efflux pump antigen Rv2477c]”, for which the DC50 in assay [1] is listed as more than 2 h. Besides, in assay [2], the “FI (fluorescence index)” value turned out to be 1.72 and the MFI was determined as 367.

Regarding “YLLGGTVVV [Rv1877-p71, predicted HLA-A2-restricted 9-mer peptide … from MTB efflux pump antigen Rv1877]”, in assay [1], the DC50 was more than 2 h. In assay [2], the “FI (fluorescence index)” value is recorded as 2.17 and the MFI was determined as 419.

“WMSIGVFSV [Rv1819c-p122, predicted HLA-A2-restricted 9-mer peptide … from MTB efflux pump antigen Rv1819c]”: in assay [2], the “FI (fluorescence index)” value stood at 0.35 and the MFI was 177.

Regarding “LLDEPSSGL [Rv1218c-p158, predicted HLA-A2-restricted 9-mer peptide … from MTB efflux pump antigen Rv1218c]”, in assay [3], the “IFN-γ secretion of peptide-induced CTLs (ELISPOT)” value (“IFN-γ secretion” below) was “secreted IFN-γ most potently”. The same sequence came in with a DC50 in assay [1] of more than 4 h. Further, the “CD8+ IFN-γ+ T cells, PPD+ donors compared with PPD− donors” value in assay [4] is recorded as “significantly more CD8^+ IFN-γ^+ T cells”. For the same sequence, in assay [2], the “FI (fluorescence index)” value amounted to 2.35 and the MFI came to 439.

Consider “LLDEPTSAL [Rv0933-p186, predicted HLA-A2-restricted 9-mer peptide … from MTB efflux pump antigen Rv0933]”, for which, in assay [1], the DC50 is on record as less than 2 h. Also, in assay [2], the “FI (fluorescence index)” value came out at 2.52 and the MFI amounted to 465.

With ALDGLDLTV [Rv1218c-p24], the “IFN-γ secretion” value in assay [3] is recorded as “secreted IFN-γ most potently”. Also, in assay [5] (setting [9]), the “CD8+ IFN-γ+ T cells compared with NS group, CFA preimmunization” value is reported as “produced more CD8^+ IFN-γ^+ T cells than the NS group”. Further, the “CD8+ IFN-γ+ T cells compared with NS group, IFA” value in assay [5] (IFA immunization) is “induced more CD8^+IFN-γ^+ T cells than the NS group”. The DC50 in assay [1] is on record as more than 4 h. Besides, in assay [4], the “CD8+ IFN-γ+ T cells, PPD+ donors compared with PBS-treated group” value is reported as “more CD8^+ IFN-γ^+ T cells than the PBS-treated group” and the “CD8+ IFN-γ+ T cells, PPD+ donors compared with PPD− donors” value is recorded as “significantly more CD8^+ IFN-γ^+ T cells”. Moreover, the “serum IFN-γ concentration (ELISA), CFA preimmunization” value in assay [6] (CFA 200 μL s.c. day -14, then peptide 100 μg/mice + T helper epitope 140 μg/mice in IFA days 0, 5, 10) stood at 1817.0 pg/mL. The “serum IFN-γ concentration (ELISA), IFA” value in assay [6] (peptide 100 μg/mice + T helper epitope 140 μg/mice in IFA 1 : 1, s.c. base of tail, days 0, 5, 10) was found to be 363 pg/mL. Besides, the lysis rate in assay [7] amounted to 88.6%. In assay [2], the “FI (fluorescence index)” value is listed as 3.32 and the MFI was determined as 569. In addition, in assay [8] (setting [9]), the “lysis rate, CFA preimmunization, E : T 40 : 1” value is on record as 24.6% and the “lysis rate, CFA preimmunization, E : T 80 : 1” value is 41.2%. Also, the “lysis rate, IFA, E : T 80 : 1” value in assay [8] (IFA immunization) is reported as 26.4%.

In assay [1], “ILIGETIKI [COX-2-p321, reference compound]” came in with a DC50 of more than 4 h. In assay [2], the “FI (fluorescence index)” value is recorded as 2.11 and the MFI is on record as 408.

In assay [1], “SLVSQPPTL [Rv1218c-p280, predicted HLA-A2-restricted 9-mer peptide … from MTB efflux pump antigen Rv1218c]” yielded a DC50 of less than 2 h. In assay [2], the “FI (fluorescence index)” value was determined as 1.62 and the MFI was 353.

In turn, “GLDPLMENV [Rv1218c-p165, predicted HLA-A2-restricted 9-mer peptide … from MTB efflux pump antigen Rv1218c]” had a DC50 in assay [1] of more than 2 h. For the same sequence, in assay [2], the “FI (fluorescence index)” value is 2.6 and the MFI was found to be 479.

Turning to “LLLSKPDLL [Rv2477c-p173, predicted HLA-A2-restricted 9-mer peptide … from MTB efflux pump antigen Rv2477c]”, in assay [2], the “FI (fluorescence index)” value worked out at 1.15 and the MFI is 272.

“LMMPQTVTV [Rv2994-p223, predicted HLA-A2-restricted 9-mer peptide … from MTB efflux pump antigen Rv2994]”: the DC50 in assay [1] is reported as less than 2 h. Further, in assay [2], the “FI (fluorescence index)” value is given as 2.28 and the MFI stood at 430.

In assay [1], “SLADRLTVI [Rv0933-p208, predicted HLA-A2-restricted 9-mer peptide … from MTB efflux pump antigen Rv0933]” came in with a DC50 of less than 2 h. Moreover, in assay [2], the “FI (fluorescence index)” value was 2.59 and the MFI is recorded as 479.

The sequence “VLATGVTLV [Rv2209-p158, predicted HLA-A2-restricted 9-mer peptide … from MTB efflux pump antigen Rv2209]” yielded a DC50 in assay [1] of more than 4 h. In addition, in assay [2], the “FI (fluorescence index)” value is on record as 2.54 and the MFI is 462.

Turning to “VLAADAVFV [Rv2459c-p469, predicted HLA-A2-restricted 9-mer peptide … from MTB efflux pump antigen Rv2459c]”, the “IFN-γ secretion” value in assay [3] was “secreted IFN-γ most potently”. Also, in assay [1], the DC50 is recorded as more than 4 h. For the same sequence, in assay [4], the “CD8+ IFN-γ+ T cells, PPD+ donors compared with PBS-treated group” value is “more CD8^+ IFN-γ^+ T cells than the PBS-treated group” and the “CD8+ IFN-γ+ T cells, PPD+ donors compared with PPD− donors” value is “significantly more CD8^+ IFN-γ^+ T cells”. In assay [2], the “FI (fluorescence index)” value is 2.36 and the MFI is on record as 440.

For the sequence “RLTEELAWV [Rv2477c-p265, predicted HLA-A2-restricted 9-mer peptide … from MTB efflux pump antigen Rv2477c]”, in assay [2], the “FI (fluorescence index)” value turned out to be 1.36 and the MFI worked out at 315.

The sequence “RLGNVVVEV [Rv2477c-p316, predicted HLA-A2-restricted 9-mer peptide … from MTB efflux pump antigen Rv2477c]” showed a DC50 in assay [1] of more than 2 h. In assay [2], the “FI (fluorescence index)” value was 1.58 and the MFI worked out at 348.

Take “ALCEKVTII [Rv1218c-p200, predicted HLA-A2-restricted 9-mer peptide … from MTB efflux pump antigen Rv1218c]”: the DC50 in assay [1] is recorded as more than 4 h. Besides, in assay [1] (listed as Rv1218c-P200), the DC50 was more than 4 h. In assay [2], the “FI (fluorescence index)” value turned out to be 1.75 and the MFI stood at 366.

(Values after paper PMC7803423, “Identification of CTL Epitopes on Efflux Pumps of the ATP-Binding Cassette and the Major Facilitator Superfamily of Mycobacterium tuberculosis” (Journal of Immunology Research, 2021).)
